The numbers were not newly measured in patent publication US7589137B2, “Resin composition and molded product obtained therefrom” (Sony Corporation, priority 2005, dated 2009), which cites them from elsewhere.

By LD50 is commonly meant the dose at which mortality reaches 50%.

The conditions of this data set: safety to a living body.

As for `Cc1cc(O)nc(O)n1` [6-methyluracil], the LD50 was 64500 mg/kg.
On to `O=c1cc[nH]c(=O)[nH]1` [Uracil, uracil], for which the LD50 entry was “several”.
